The experiment has as its target T1, AR in VCaP cells (Homo sapiens, UniProt P10275).
T1 construct: endogenous in cells; host or cells: VCaP cells
T1 sequence (P10275 1-920): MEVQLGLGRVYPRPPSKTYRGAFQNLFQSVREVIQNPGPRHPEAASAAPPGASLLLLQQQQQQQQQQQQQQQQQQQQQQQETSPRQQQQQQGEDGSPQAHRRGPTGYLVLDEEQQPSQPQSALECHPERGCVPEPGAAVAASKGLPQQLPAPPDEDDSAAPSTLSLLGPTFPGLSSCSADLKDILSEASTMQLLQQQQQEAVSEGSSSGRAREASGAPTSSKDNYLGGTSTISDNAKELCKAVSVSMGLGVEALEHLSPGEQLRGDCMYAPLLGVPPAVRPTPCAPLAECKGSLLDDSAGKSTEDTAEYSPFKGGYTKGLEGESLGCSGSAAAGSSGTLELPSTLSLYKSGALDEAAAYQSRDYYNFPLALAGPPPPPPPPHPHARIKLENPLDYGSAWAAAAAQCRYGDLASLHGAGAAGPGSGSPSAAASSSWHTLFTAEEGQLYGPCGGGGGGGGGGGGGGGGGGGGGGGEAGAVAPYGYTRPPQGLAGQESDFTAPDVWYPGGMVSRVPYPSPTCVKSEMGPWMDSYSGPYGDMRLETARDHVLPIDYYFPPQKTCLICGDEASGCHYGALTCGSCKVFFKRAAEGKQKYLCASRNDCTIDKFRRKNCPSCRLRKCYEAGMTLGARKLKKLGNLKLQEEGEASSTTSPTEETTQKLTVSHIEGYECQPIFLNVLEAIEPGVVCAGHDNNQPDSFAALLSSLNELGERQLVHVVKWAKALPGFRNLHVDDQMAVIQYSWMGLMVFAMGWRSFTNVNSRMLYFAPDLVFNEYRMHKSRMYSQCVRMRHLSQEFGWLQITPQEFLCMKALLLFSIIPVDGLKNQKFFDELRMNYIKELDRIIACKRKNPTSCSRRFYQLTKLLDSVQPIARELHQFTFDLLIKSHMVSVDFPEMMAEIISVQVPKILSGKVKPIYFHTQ
In words: VCAP AR Degradation Assay (AR ELISA, 24 h). The class given is cell-based. As to conditions: for DC50: concentration giving 50% AR degradation vs DMSO control; for remaining activity at up to 5 µM: lowest measured AR level normalized to DMSO control, top concentration 5 μM, read-out: Y. For orientation: In an ELISA, binding on a coated surface is turned into a signal by an enzyme label.

Structures can show the parent of a compound that is named as a salt.

One may read the DC50 as the midpoint of the concentration-degradation curve. As to `C[C@@H]1C[C@@H](CCO[C@H]2CC[C@H](N3C(=S)N(c4ccc(C#N)c(C(F)(F)F)c4)C(=O)C3(C)C)CC2)C[C@H](C)N1CC(=O)Nc1ccc(C2CCC(=O)NC2=O)nc1` (stereo partly drawn) [Cmpd 14, 2-((2R,4r,6S)-4-(2-((trans-4-(3-(4-Cyano-3-(trifluoromethyl)phenyl)-5,5-dimethyl-4-oxo-2-thioxoimidazolidin-1-yl)cyclohexyl)oxy)ethyl)-2,6-dimethylpiperidin-1-yl)-N-(6-(2,6-dioxopiperidin-3-yl)pyridin-3-yl)acetamide hydrochloride], the DC50 was at most 5 nM and the remaining activity at up to 5 µM lay within 20 to 30%.

`C[C@@H]1CN(CCC[C@H]2CC[C@H](N3C(=S)N(c4ccc(C#N)c(C(F)(F)F)c4)C(=O)C3(C)C)CC2)C[C@H](C)N1CC(=O)Nc1ccc(C2CCC(=O)NC2=O)nc1` (stereo partly drawn) [Cmpd 3, 2-((2R,6S)-4-(3-(trans-4-(3-(4-Cyano-3-(trifluoromethyl)phenyl)-5,5-dimethyl-4-oxo-2-thioxoimidazolidin-1-yl)cyclohexyl)propyl)-2,6-dimethylpiperazin-1-yl)-N-(6-(2,6-dioxopiperidin-3-yl)pyridin-3-yl)acetamide]: the DC50 was 5 to 10 nM and the remaining activity at up to 5 µM was in the range of 30 to 70%.

Values taken from US20240374591A1, “CEREBLON BINDING COMPOUNDS, COMPOSITIONS THEREOF, AND METHODS OF TREATMENT THEREWITH” (CELGENE CORPORATION, priority 2021, published 2024).
